{"source": "patent US20260263417A1", "about": "“STRUCTURE-BASED OPTIMIZATION OF S6K2 INHIBITOR CD02 TO TARGET MELANOMA” (THE WISTAR INSTITUTE OF ANATOMY AND BIOLOGY, priority 2023, published 2026)", "key": {"[1]": {"test_system": "MAPKi-R NRAS-mutant melanoma cells", "format": "cell-based", "conditions": "for effect on FNB/DHA-induced cell death: M93-047, GSH 2 mM, zVAD 20 μM, Kira6 0.2 μM pre-treatment; for effect on cell death induced by S6K2 depletion (S6K2 shRNA): M93-047 cells transduced with S6K2 shRNA; for effect on S6K2i (CD02)-induced cell death: MAPKi-R cells treated with CD02", "method": "Floating and attached cells were harvested, washed and stained with PSVue 643/PI or Annexin V-FITC/PI. Annexin V staining was performed as described previously (45), with 15 min Annexin V incubation. For PSVue/PI staining, cells were incubated in 3 μM PSVue 643/TES for 10 min at RT, washed in TES buffer and resuspended in PI (5 μg/mL)/TES for 15 min at RT. Cell death (Annexin V^+/PSVue^+ or PI^+) was quantified by FACS (LSRII 18 color analyzer, BD Biosciences) and analyzed using FlowJo software v.10.7.2."}, "[2]": {"test_system": "pS6 (S240/244) in MAPKi-S cells", "assay": "Phosphorylation of S6K/S6 in MAPKi-S cells (immunoblotting, RPPA, flow cytometry)", "format": "cell-based, human", "method": "(§1) Cells were lysed with RIPA buffer (50 mM Tris-HCl, pH 7.4, 150 mM NaCl, 1% NP-40, 0.5% sodium deoxycholate, 1 mM EDTA, 2.5 mM sodium pyrophosphate, 0.05% or 0.1% SDS) supplemented with sodium vanadate (0.2 mM) and protease inhibitor cocktail (Sigma-Aldrich #11697498001). Immunoblotting was performed as previously described (Echevarria-Vargas et al., 2018). Immunoblots were imaged with an Odyssey Infrared Imaging System (LI-COR Biosciences).\n(§2) Flow cytometry. Cells were fixed in 90% ice cold EtOH/PBS and stored at −20° C. Cells were washed twice with PBS followed by 1 h incubation at RT with incubation buffer (1% BSA/PBS) containing primary antibodies (1:500 pS6 S240/244 Cell Signaling Technology #5364; 1:1000 HA Sigma-Aldrich #H9658). Samples were washed once (1×PBS), incubated for 30 min at RT with incubation buffer containing secondary antibodies diluted to 1:500 (goat anti-mouse Alexa Fluor 488 ThermoFisher #A11029; goat anti-rabbit Alexa Fluor 647 #A21244), washed (1×PBS) and resuspended in incubation buffer for analysis by flow cytometry (BD LSRII 14-color flow cytometer analyser; Alexa Fluor 488 and APC filter sets). Data analyses were performed using FlowJo software to calculate pS6 positivity. For 4-HNE staining, cells were fixed with 4% paraformaldehyde for 15 min, washed with PBS and stored at 4° C. […]"}, "[3]": {"test_system": "pS6 (S240/244) in MAPKi-R cells", "assay": "Phosphorylation of S6K/S6 in MAPKi-R cells (immunoblotting, RPPA, flow cytometry)", "format": "cell-based, human", "method": "as §1, §2"}, "[4]": {"test_system": "spliced XBP-1 and PPARα in M93-047 cells", "assay": "Spliced XBP-1 and PPARα levels by qRT-PCR / Western blotting", "format": "cell-based, human", "method": "as §1\nCell pellets were homogenized using QIAshredder (QIagen #79656) and RNA extracted with PureLink RNA mini kit (Thermo Fisher Scientific, #12183018A). DNA was removed by on-column PureLink DNase treatment (Thermo Fisher Scientific, #12185010). First-strand cDNA was synthesized using Maxima cDNA kit (Thermo Scientific™ #K1642). Real time qPCR was performed using SYBR green PCR Master Mix (Applied Biosystems #4385612). Tumor samples for qRT-PCR were preserved in RNAlater solution (Invitrogen #AM7020)."}, "[5]": {"test_system": "M93047 and WM3623 cell lines", "assay": "Preliminary in vitro studies against MAPKi-R cell lines", "format": "cell-based, human", "conditions": "at lower concentrations"}}, "note": "Residues, ends and D or L forms follow the SMILES beside them. *: point of attachment. Cbz = O=C(OCc1ccccc1)*; CH2F = FC*", "data": [{"smiles": "N[C@@H](CCC(=O)N[C@@H](CS)C(=O)NCC(=O)O)C(=O)O", "note": "[GSH, glutathione]", "values": [{"measurement": "effect on FNB/DHA-induced cell death", "setting": "[1]", "value": "attenuated FNB/DHA-induced cell death"}, {"measurement": "effect on cell death induced by S6K2 depletion (S6K2 shRNA)", "setting": "[1]", "value": "also attenuated cell death"}, {"measurement": "effect on S6K2i (CD02)-induced cell death", "setting": "[1]", "value": "attenuate S6K2i-induced cell death"}]}, {"smiles": "COc1ncc(-c2ccc3nccc(-c4ccnnc4)c3c2)cc1NS(=O)(=O)c1ccc(F)cc1F", "note": "[GSK458, GSK2126458]", "values": [{"measurement": "phosphorylation of S6K / S6", "setting": "[2]", "value": "decreased phosphorylation of S6"}, {"measurement": "phosphorylation of S6K / S6", "setting": "[3]", "value": "effectively suppressed pS6"}]}, {"smiles": "CC(C)(C)c1nc(-c2ccc(NC(=O)Nc3cccc(C(F)(F)F)c3)c3ccccc23)c2c(N)nccn12", "note": "[Kira6]", "values": [{"measurement": "effect on FNB/DHA-induced cell death", "setting": "[1]", "value": "attenuated FNB/DHA-induced cell death"}, {"measurement": "effect on cell death induced by S6K2 depletion (S6K2 shRNA)", "setting": "[1]", "value": "partially attenuated cell death"}, {"measurement": "effect on S6K2i (CD02)-induced cell death", "setting": "[1]", "value": "attenuate S6K2i-induced cell death"}, {"measurement": "upregulation of XBP-1 splicing and PPARα expression caused by S6K2 knockdown", "setting": "[4]; M93-047, S6K2 shRNA", "value": "suppressed"}, {"measurement": "activation of XBP-1 by FNB/DHA", "setting": "[4]; cotreatment with 0.2 μM Kira6", "value": "suppressed the activation of XBP-1"}]}, {"smiles": "Cn1cc(-c2ccc(F)c(C(F)(F)F)c2)nc1C1CCN(c2ncnc3[nH]ncc23)CC1", "note": "[LY2584702]", "values": [{"measurement": "cytotoxicity with ectopically expressed activated S6K1", "setting": "[1]; M93-047 with S6K1^T389E, 1, 5, 10 μM, 48 hours", "value": "enhanced LY4702 cytotoxicity"}]}, {"smiles": "O=C(CCl)Nc1ccc(-c2cc(O)cc3sc(=O)oc23)cc1", "note": "[MM-113]", "values": [{"measurement": "potency compared with RT12", "setting": "[5]", "value": "better potency at lower concentrations"}]}, {"smiles": "CC(=O)N[C@@H](CS)C(=O)O", "note": "[NAC]", "values": [{"measurement": "effect on cell death induced by S6K2 depletion (S6K2 shRNA)", "setting": "[1]", "value": "protects M93047 cells from S6K2sh induced cell death"}, {"measurement": "effect on S6K2i (CD02)-induced cell death", "setting": "[1]", "value": "rescues S6K2i-induced cell death"}]}, {"smiles": "O=C(Nc1ccc2[nH]nc(-c3ccncc3)c2c1)[C@@H]1CCN(CC(=O)N2CCN(c3ccc(-c4ncccn4)cc3)CC2)C1", "note": "[SCH984, SCH772984]", "values": [{"measurement": "phosphorylation of S6K / S6", "setting": "[2]", "value": "decreased phosphorylation of S6"}, {"measurement": "phosphorylation of S6K / S6", "setting": "[3]", "value": "no effect on phosphorylation of S6"}]}, {"smiles": "CCOC(=O)c1ccc(NC2CCCCC2)c(N)c1", "note": "[ferrostatin-1]", "values": [{"measurement": "effect on cell death induced by S6K2 depletion (S6K2 shRNA)", "setting": "[1]", "value": "did not attenuate cell death"}]}, {"smiles": "COC(=O)C[C@H](NC(=O)[C@H](C)NC(=O)[C@@H](NC(=O)OCc1ccccc1)C(C)C)C(=O)CF", "note": "[zVAD, zVAD(OMe)-FMK] (Cbz-Val-Ala-Asp(OMe)-CH2F)", "values": [{"measurement": "effect on FNB/DHA-induced cell death", "setting": "[1]", "value": "attenuated FNB/DHA-induced cell death"}, {"measurement": "effect on cell death induced by S6K2 depletion (S6K2 shRNA)", "setting": "[1]", "value": "also attenuated cell death"}, {"measurement": "effect on S6K2i (CD02)-induced cell death", "setting": "[1]", "value": "attenuate S6K2i-induced cell death"}]}]}
